Data reported in patent US20130315843A1, “COMPOSITION FOR REDUCTION OF TRPA1 AND TRPV1 SENSATIONS” (priority 2012, published 2013).
“Also recorded” adds a separate entry of the source. Structures can show the parent of a compound that is named as a salt. Where two headings read alike, the source gives them in different places.

Key:
human TRPA1 [1] = target: T1, human TRPA1 (Homo sapiens, UniProt O75762); experiment: FLIPR Ca2+ assay, reduction of hydrogen peroxide activation of TRPA1; format: cell-based; design: expressed in transfected cells; conditions: for inhibition at 100 µM / inhibition at 400 µM: read-out: % Reduction of Hydrogen Peroxide TRPA1 Activation
T1 sequence (O75762 whole entry): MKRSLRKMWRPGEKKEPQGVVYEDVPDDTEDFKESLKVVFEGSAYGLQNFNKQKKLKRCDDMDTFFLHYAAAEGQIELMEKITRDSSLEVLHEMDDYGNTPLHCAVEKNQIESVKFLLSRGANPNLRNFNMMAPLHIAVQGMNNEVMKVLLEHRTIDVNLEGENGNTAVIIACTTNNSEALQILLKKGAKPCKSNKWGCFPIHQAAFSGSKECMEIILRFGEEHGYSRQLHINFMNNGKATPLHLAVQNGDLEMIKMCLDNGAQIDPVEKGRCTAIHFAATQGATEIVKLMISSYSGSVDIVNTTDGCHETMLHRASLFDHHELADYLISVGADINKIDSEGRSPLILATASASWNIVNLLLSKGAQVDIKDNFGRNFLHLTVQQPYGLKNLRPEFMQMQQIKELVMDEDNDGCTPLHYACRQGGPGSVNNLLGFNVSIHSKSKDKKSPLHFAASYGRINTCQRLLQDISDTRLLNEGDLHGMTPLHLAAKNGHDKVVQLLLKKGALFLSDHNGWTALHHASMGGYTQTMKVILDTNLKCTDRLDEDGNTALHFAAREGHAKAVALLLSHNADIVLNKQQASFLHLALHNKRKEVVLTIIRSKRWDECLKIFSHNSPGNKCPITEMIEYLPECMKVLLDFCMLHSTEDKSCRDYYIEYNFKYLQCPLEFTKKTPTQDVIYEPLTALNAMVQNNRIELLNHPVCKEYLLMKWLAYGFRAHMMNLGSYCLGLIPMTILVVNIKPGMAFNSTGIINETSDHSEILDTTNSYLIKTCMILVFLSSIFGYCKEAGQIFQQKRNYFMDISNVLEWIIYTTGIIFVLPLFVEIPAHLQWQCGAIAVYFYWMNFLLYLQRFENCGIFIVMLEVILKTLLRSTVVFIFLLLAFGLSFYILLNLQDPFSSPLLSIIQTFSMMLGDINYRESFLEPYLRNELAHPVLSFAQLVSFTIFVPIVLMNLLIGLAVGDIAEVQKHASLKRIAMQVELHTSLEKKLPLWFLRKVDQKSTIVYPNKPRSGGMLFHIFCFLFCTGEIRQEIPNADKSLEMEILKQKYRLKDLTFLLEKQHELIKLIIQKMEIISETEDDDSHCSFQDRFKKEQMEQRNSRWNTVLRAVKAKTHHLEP
Procedure: After centrifugation, a pellet of cells was formed in the bottom of the tube separating them from the supernatant solution.
The pelleted cells were re-suspended in 10 ml assay buffer and 90 μl aliquots (˜50,000 cells) per well delivered to a 96-well assay plate containing 10 μl of test compounds ([…]) or buffer control and incubated at room temperature for 30 minutes.

human TRPA1 [2] = target: T1, human TRPA1; experiment: FLIPR Ca2+ assay, reduction of L-Menthol activation of TRPA1; conditions: 100 μM antagonist vs 1 mM L-Menthol
human TRPV1 [3] = target: T2, human TRPV1 (Homo sapiens, UniProt Q8NER1); experiment: FLIPR Ca2+ assay, reduction of L-Menthol activation of TRPV1; conditions: for inhibition at 100 µM: read-out: % Reduction of L-Menthol TRPV1 Activation
T2 sequence (Q8NER1 whole entry): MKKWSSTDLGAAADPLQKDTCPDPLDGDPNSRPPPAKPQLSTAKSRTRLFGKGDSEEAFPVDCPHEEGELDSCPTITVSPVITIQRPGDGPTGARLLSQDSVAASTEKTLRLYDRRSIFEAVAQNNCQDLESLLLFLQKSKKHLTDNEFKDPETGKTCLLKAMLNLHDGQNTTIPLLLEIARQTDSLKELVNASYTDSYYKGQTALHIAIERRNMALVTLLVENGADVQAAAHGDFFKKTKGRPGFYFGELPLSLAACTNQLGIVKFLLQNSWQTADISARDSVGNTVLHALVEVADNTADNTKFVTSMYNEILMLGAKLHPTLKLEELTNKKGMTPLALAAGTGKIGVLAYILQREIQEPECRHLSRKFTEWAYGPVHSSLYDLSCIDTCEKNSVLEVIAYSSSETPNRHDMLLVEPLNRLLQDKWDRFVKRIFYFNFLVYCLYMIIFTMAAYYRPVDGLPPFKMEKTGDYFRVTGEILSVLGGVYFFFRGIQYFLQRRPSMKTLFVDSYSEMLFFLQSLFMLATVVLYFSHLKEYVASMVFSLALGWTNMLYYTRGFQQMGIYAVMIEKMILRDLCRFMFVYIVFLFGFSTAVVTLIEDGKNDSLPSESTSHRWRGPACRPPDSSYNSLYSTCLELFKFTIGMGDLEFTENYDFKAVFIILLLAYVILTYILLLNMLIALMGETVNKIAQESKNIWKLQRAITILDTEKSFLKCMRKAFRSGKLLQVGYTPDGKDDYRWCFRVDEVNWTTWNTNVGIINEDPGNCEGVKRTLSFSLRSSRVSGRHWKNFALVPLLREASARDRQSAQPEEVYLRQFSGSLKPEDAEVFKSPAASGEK

human TRPA1 [4] = target: T1, human TRPA1; experiment: FLIPR Ca2+ assay, block of AITC activation of TRPA1; format: cell-based; design: expressed in transfected cells
Procedure: Intracellular Ca^++ levels were measured using cell based assays as described for EXAMPLES 1, 2, and 3.

human TRPV1 [5] = target: T2, human TRPV1; experiment: FLIPR Ca2+ assay, reduction of hydrogen peroxide activation of TRPV1; format: cell-based; design: expressed in transfected cells; conditions: antagonist 100 μM against 500 μM hydrogen peroxide
Procedure: Cells were detached with addition of 10 ml of PBS (phosphate buffered saline) by hand shaking gently. Cells were transferred to a 50 ml tube and centrifuged at 850 rpm for 3 minutes to remove PBS.
The pelleted cells were re-suspended in 10 ml assay buffer and 90 μl aliquots (˜50,000 cells) per well delivered to a 96-well assay plate containing 10 μl of test compounds (1 mM in assay buffer, […]) or buffer control and incubated at room temperature for 30 minutes.

[6] = 100 μM antagonist vs 500 μM hydrogen peroxide
[7] = compound 100 μM against 200 μM hydrogen peroxide, Sets 1-4
[8] = antagonist 100 μM against 1 mM L-Menthol
[9] = 400 μM antagonist vs 500 μM hydrogen peroxide
[10] = antagonist 400 μM against 200 μM hydrogen peroxide

Row | Compound | Block of hydrogen peroxide activation of TRPA1 (human TRPA1 [1]; [6]) | Average Ca++ Counts (human TRPA1 [1]; [7]) | inhibition at 100 µM (human TRPA1 [1]; [7]) | Block of L-Menthol activation of TRPA1 (human TRPA1 [2]) | Average Ca2+ Counts (human TRPV1 [3]; [8]) | inhibition at 100 µM (human TRPV1 [3]) | Block of AITC activation of TRPA1 (human TRPA1 [4]; 100 μM antagonist) | other results
1 | C=CCOC(=O)CCC1CCCCC1 [allyl cyclohexanepropionate] | BLOCK BOTH MENTHOL AND H2O2 ON TRPA1 | 3443.0 Counts | 51.1% | BLOCK BOTH MENTHOL AND H2O2 ON TRPA1 | 4895.5 Counts | 23.5% |  | 
2 | CC(C)OC(=O)C(C)C [isobutyric acid isopropyl ester] | Block both H2O2 and AITC on TRPA1 | 3392.5 Counts | 51.8% |  |  |  | Block both H2O2 and AITC on TRPA1 | 
3 | CCCC(=O)OCc1ccc(OC)cc1 [Anisyl Butyrate] |  |  |  |  |  |  |  | Block of hydrogen peroxide activation of TRPA1 (human TRPA1 [1]; [9]): Block both H2O2 and AITC on TRPA1; % Reduction of Hydrogen Peroxide TRPA1 Activation (human TRPA1 [1]; [10]): 54%; Block of AITC activation of TRPA1 (human TRPA1 [4]; 400 μM antagonist): Block both H2O2 and AITC on TRPA1
4 | zinc gluconate |  |  |  | BLOCK BOTH MENTHOL AND AITC ON TRPA1 | 3963.5 Counts |  | BLOCK BOTH MENTHOL AND AITC ON TRPA1 | % Reduction of L-Menthol TRPV1 Activation (human TRPV1 [3]; [8]): 38.1%
5 | C=CCc1cc(OC)c(O)c(OC)c1 [4-Allyl-2,6-dimethoxyphenol] |  |  |  |  |  |  |  | Block of hydrogen peroxide activation of TRPA1 (human TRPA1 [1]; [9]): Block both H2O2 and AITC on TRPA1; inhibition at 400 µM (human TRPA1 [1]; [10]): 54%; Block of AITC activation of TRPA1 (human TRPA1 [4]; 400 μM antagonist): Block both H2O2 and AITC on TRPA1
6 | O=C(Oc1ccccc1)c1ccccc1O [phenyl salicylate] | Block both H2O2 and AITC on TRPA1 | 2893.5 Counts | 72.7% |  |  |  | Block both H2O2 and AITC on TRPA1 | 
7 | COc1ccccc1C=CC=O [o-Methoxycinnamaldehyde] |  |  |  |  |  |  |  | Block of hydrogen peroxide activation of TRPA1 (human TRPA1 [1]; [9]): Block both H2O2 and AITC on TRPA1; inhibition at 400 µM (human TRPA1 [1]; [10]): 51%; Block of AITC activation of TRPA1 (human TRPA1 [4]; 400 μM antagonist): Block both H2O2 and AITC on TRPA1
8 | CC(C)C=C(C=O)c1ccccc1 (single isomer, unassigned) [4-Methyl-2-phenyl-2 Pentenal (mixture of cis and trans isomers)] |  |  |  |  |  |  |  | Block of hydrogen peroxide activation of TRPA1 (human TRPA1 [1]): Block both H2O2 and AITC on TRPA1; Block of AITC activation of TRPA1 (human TRPA1 [4]; 400 μM antagonist): Block both H2O2 and AITC on TRPA1
9 | CC(S)CS (centres unmarked) [1,2-propanedithiol] | Block both H2O2 and AITC on TRPA1 | 2194.5 Counts |  |  |  |  | Block both H2O2 and AITC on TRPA1 | % Reduction of Hydrogen Peroxide TRPA1 Activation (human TRPA1 [1]; [7]): 68.8%
10 | SCCc1cnccn1 [2-Pyrazinyl ethanethiol] | Block menthol, H2O2, and AITC on TRPA1 |  |  | Block menthol, H2O2, and AITC on TRPA1 |  |  | Block menthol, H2O2, and AITC on TRPA1 | 
11 | c1ccc2scnc2c1 [benzothiazole] |  | 5513.0 Counts | 48% |  |  |  | Block both H2O2 and AITC on TRPA1 | 
12 | C1CNCCN1 [piperazine] | BLOCK BOTH MENTHOL AND H2O2 ON TRPA1 | 2815.5 Counts | 60% | BLOCK BOTH MENTHOL AND H2O2 ON TRPA1 | 3405.0 Counts | 46.8% |  | 
13 | Cc1occc1S [2-methyl-3-furanthiol] |  |  |  | BLOCK BOTH MENTHOL AND AITC ON TRPA1; also recorded: BLOCK ONLY MENTHOL/TRPA1 | 2835.5 Counts | 38.9% | BLOCK BOTH MENTHOL AND AITC ON TRPA1 | 
14 | CCOC(=O)CC(C)=O [ethyl acetoacetate] | Block both H2O2 and AITC on TRPA1 | 3314.5 Counts | 43.6% |  |  |  | Block both H2O2 and AITC on TRPA1 | 
15 | CC1=CC(=O)[C@@H](C(C)C)CC1 [L-Piperitone] |  |  |  |  |  |  |  | % Reduction of Hydrogen Peroxide TRPV1 Activation (human TRPV1 [5]): 58%
16 | CCCC/C=C/C=C/C=O [trans, trans-2,4-Nonadienal] |  |  |  |  |  |  |  | Block of hydrogen peroxide activation of TRPA1 (human TRPA1 [1]; [9]): Block both H2O2 and AITC on TRPA1; inhibition at 400 µM (human TRPA1 [1]; [10]): 67%; Block of AITC activation of TRPA1 (human TRPA1 [4]; 400 μM antagonist): Block both H2O2 and AITC on TRPA1
17 | O=C(C=Cc1ccccc1)OCc1ccccc1 [benzyl cinnamate] | Block both H2O2 and AITC on TRPA1 | 4828.5 Counts | 54.4% |  |  |  | Block both H2O2 and AITC on TRPA1 | 
18 | CCc1ccccc1S [2-ethylbenzenethiol] | Block menthol, H2O2, and AITC on TRPA1 | 4808.5 Counts | 54.6% | Block menthol, H2O2, and AITC on TRPA1 |  |  | Block menthol, H2O2, and AITC on TRPA1 | 
19 | Cc1ccc(C=O)c(O)c1 [2-hydroxy-4-methylbenzaldehyde] | Block both H2O2 and AITC on TRPA1 | 3429.0 Counts | 51.3% |  |  |  | Block both H2O2 and AITC on TRPA1 | 
20 | COC(=O)c1cccnc1 [methyl nicotinate] |  |  |  | BLOCK ONLY MENTHOL/TRPA1 | 1483.7 Counts | 23.3% |  | 
21 | CCCCCC(=O)OCC [ethyl hexanoate] |  |  |  | BLOCK ONLY MENTHOL/TRPA1 | 3655.5 Counts | 42.9% |  | 
22 | COc1ccccc1C [o-methylanisole] |  |  |  | BLOCK ONLY MENTHOL/TRPA1 | 1107.3 Counts | 40.7% |  | 
23 | Cc1nc(C)c(C)nc1C [2,3,5,6-tetramethylpyrazine] |  |  |  | BLOCK ONLY MENTHOL/TRPA1 | 972.0 Counts | 47% |  | 
24 | COc1nccnc1CC(C)C [2-isobutyl-3-methoxypyrazine] | BLOCK BOTH MENTHOL AND H2O2 ON TRPA1 | 3067.5 Counts | 56.4% | BLOCK BOTH MENTHOL AND H2O2 ON TRPA1 | 4020.0 Counts | 37.2% |  | 
25 | COc1ccc(COC=O)cc1 [4-methoxybenzyl formate] |  |  |  | BLOCK ONLY MENTHOL/TRPA1 | 1399.0 Counts | 27.2% |  | 
26 | CCCCCCCCCCCCCCCCOC(=O)C(C)O (centres unmarked) [hexadecyl lactate] |  |  |  | BLOCK ONLY MENTHOL/TRPA1 | 1047.0 Counts | 43.5% |  | 
27 | Cc1ccc(C)c(O)c1C [2,3,6-trimethylphenol] |  |  |  | BLOCK ONLY MENTHOL/TRPA1 | 1339.3 Counts | 30% |  | 
28 | CCOC(=O)CC [ethyl propionate] |  |  |  | BLOCK ONLY MENTHOL/TRPA1 | 2712.0 Counts | 32.8% |  | 
29 | CCOC(=O)CC1(C)OCCO1 [ethyl acetoacetate ethylene ketal] | Block both H2O2 and AITC on TRPA1 | 3298.5 Counts | 53.2% |  |  |  | Block both H2O2 and AITC on TRPA1 | 
